These are literature values, as cited in patent US20130225581A1, “NITROGEN-CONTAINING AROMATIC HETEROCYCLIC DERIVATIVE” (KYOWA HAKKO KIRIN CO., LTD, priority 2010, published 2013).

The subject of this data set is human gastric cancer tumor models.

For `COc1cc2nccc(Oc3ccc(NC(=O)NC4CC4)c(Cl)c3)c2cc1C(N)=O` [4-[3-chloro-4-(cyclopropylaminocarbonyl)aminophenoxy]-7-methoxy-6-quinolinecarboxamide], the antitumor activities entry is “show antitumor activities”.

For the molecule `COc1cc2c(Oc3ccc4[nH]c(C)cc4c3F)ncnc2cc1OCCCN1CCCC1` [AZD2171], the antitumor activities result is “show antitumor activities”.
